Experimental findings from publication PMC6576746, “Rational discovery of dual-indication multi-target PDE/Kinase inhibitor for precision anti-cancer therapy using structural systems pharmacology” (PLoS Computational Biology, 2019) are described below.

Common to all, as to experiment: biochemical
Parameters in all cases: DiscoverX KinomeScan competition binding assay across human kinases; per cent of control at 10 and 100 uM

The target of experiment [1] is T1, CDC2L5 (Homo sapiens, UniProt Q14004).
T1 construct: gene CDK13
The settings on record: competition binding, % of control; read-out: Percent Control (100 uM Levosimendan). An outline of the steps: (§1)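 KinomeScan competition binding was run across a human kinase panel at 10 μM and 100 μM levosimendan. Results are %control = (test − positive control)/(negative control − positive control) × 100.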

For experiment [2], the target named is T2, HPK1 (Homo sapiens, UniProt Q92918).
T2 construct: gene MAP4K1
The settings on record: competition binding, % of control; read-out: Percent Control (100 uM Levosimendan). An outline of the steps:
as §1

For experiment [3], the target named is LCK (Homo sapiens, UniProt P06239). The settings on record: competition binding, % of control. Put shortly:
as §1

For experiment [4], the target named is ROS1 (Homo sapiens, UniProt P08922). The settings on record: competition binding, % of control; read-out: Percent Control (100 uM Levosimendan). Put shortly: as §1
The target in experiment [5] is T3, JAK1(JH1domain-catalytic) (Homo sapiens, UniProt P23458).
T3 construct: JH1domain-catalytic
The settings on record: competition binding, % of control; read-out: Percent Control (100 uM Levosimendan). Put shortly: as §1

The target of experiment [6] is T4, RPS6KA4(Kin.Dom.1-N-terminal) (Homo sapiens, UniProt O75676).
T4 construct: Kin.Dom.1-N-terminal
The settings on record: competition binding, % of control; read-out: Percent Control (100 uM Levosimendan). Put shortly: as §1

In experiment [7] the target is EIF2AK1 (Homo sapiens, UniProt Q9BQI3). The note with it: competition binding, % of control; read-out: Percent Control (100 uM Levosimendan). An outline of the steps: as §1
EIF2AK1, sequence (Q9BQI3 whole entry): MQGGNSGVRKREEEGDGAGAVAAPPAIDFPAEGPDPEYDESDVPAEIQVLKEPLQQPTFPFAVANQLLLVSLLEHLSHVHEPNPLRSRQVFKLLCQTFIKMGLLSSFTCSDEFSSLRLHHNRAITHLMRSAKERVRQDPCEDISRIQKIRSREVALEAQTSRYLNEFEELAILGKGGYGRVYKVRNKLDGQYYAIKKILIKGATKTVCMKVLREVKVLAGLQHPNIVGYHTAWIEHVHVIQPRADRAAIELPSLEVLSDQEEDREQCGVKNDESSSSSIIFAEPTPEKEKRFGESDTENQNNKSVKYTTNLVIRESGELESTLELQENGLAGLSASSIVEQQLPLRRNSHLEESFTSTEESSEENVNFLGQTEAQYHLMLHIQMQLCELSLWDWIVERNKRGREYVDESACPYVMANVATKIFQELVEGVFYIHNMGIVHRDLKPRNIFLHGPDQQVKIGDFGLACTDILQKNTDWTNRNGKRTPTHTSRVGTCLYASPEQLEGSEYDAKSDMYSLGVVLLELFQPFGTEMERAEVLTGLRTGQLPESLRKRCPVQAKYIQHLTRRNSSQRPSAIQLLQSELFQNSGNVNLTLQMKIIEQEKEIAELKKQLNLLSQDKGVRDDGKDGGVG
Experiment [8] concerns the target GAK (Homo sapiens, UniProt O14976). The note with it: competition binding, % of control. Put shortly:
as §1

Experiment [9] addresses TBK1 (Homo sapiens, UniProt Q9UHD2). The settings on record: competition binding, % of control. Put shortly:
as §1

Experiment [10] concerns the target SRMS (Homo sapiens, UniProt Q9H3Y6). The note with it: competition binding, % of control; read-out: Percent Control (100 uM Levosimendan). An outline of the steps: as §1
Experiment [11] deals with T5, PCTK1 (Homo sapiens, UniProt Q00536).
T5 construct: gene CDK16
T5 sequence (Q00536 whole entry): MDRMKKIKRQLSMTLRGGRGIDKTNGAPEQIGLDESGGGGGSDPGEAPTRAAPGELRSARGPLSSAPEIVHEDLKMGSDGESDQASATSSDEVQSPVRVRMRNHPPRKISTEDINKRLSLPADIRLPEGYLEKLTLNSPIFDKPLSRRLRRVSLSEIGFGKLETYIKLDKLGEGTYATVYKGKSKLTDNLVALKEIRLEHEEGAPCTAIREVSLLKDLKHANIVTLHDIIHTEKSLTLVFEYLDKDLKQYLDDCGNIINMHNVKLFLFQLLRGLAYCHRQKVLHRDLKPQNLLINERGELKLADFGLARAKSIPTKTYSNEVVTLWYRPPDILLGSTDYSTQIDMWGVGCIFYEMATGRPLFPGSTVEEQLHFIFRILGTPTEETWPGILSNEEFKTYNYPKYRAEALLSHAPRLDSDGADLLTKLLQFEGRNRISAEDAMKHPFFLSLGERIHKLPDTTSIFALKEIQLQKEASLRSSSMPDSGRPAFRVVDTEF
The note with it: competition binding, % of control; read-out: Percent Control (100 uM Levosimendan). An outline of the steps:
as §1

Experiment [12] addresses T6, MEK4 (Homo sapiens, UniProt P45985).
T6 construct: gene MAP2K4
The note with it: competition binding, % of control; read-out: Percent Control (100 uM Levosimendan). Put shortly:
as §1

The target in experiment [13] is EGFR (Homo sapiens, UniProt P00533). The settings on record: competition binding, % of control. An outline of the steps:
as §1

Experiment [14] concerns the target PKN1 (Homo sapiens, UniProt Q16512). The settings on record: competition binding, % of control; read-out: Percent Control (100 uM Levosimendan). An outline of the steps:
as §1

Experiment [15] concerns the target PIK3CA(I800L) (Homo sapiens, UniProt P42336, I800L). The settings on record: competition binding, % of control; read-out: Percent Control (100 uM Levosimendan). An outline of the steps:
as §1

The target in experiment [16] is TAOK2 (Homo sapiens, UniProt Q9UL54). The settings on record: competition binding, % of control; read-out: Percent Control (100 uM Levosimendan). An outline of the steps: as §1
The target in experiment [17] is PAK2 (Homo sapiens, UniProt Q13177). The note with it: competition binding, % of control; read-out: Percent Control (100 uM Levosimendan). Put shortly: as §1
Experiment [18] concerns the target PRKD1 (Homo sapiens, UniProt Q15139). The settings on record: competition binding, % of control; read-out: Percent Control (100 uM Levosimendan). An outline of the steps: as §1
Experiment [19] has as its target GRK2 (Homo sapiens, UniProt P25098). The note with it: competition binding, % of control; read-out: Percent Control (100 uM Levosimendan). An outline of the steps:
as §1

The mark [20] stands for this setting: read-out: Percent Control (10 uM Levosimendan).
[21] abbreviates: read-out: Percent Control (100 uM Levosimendan).

GAK, sequence (O14976 whole entry): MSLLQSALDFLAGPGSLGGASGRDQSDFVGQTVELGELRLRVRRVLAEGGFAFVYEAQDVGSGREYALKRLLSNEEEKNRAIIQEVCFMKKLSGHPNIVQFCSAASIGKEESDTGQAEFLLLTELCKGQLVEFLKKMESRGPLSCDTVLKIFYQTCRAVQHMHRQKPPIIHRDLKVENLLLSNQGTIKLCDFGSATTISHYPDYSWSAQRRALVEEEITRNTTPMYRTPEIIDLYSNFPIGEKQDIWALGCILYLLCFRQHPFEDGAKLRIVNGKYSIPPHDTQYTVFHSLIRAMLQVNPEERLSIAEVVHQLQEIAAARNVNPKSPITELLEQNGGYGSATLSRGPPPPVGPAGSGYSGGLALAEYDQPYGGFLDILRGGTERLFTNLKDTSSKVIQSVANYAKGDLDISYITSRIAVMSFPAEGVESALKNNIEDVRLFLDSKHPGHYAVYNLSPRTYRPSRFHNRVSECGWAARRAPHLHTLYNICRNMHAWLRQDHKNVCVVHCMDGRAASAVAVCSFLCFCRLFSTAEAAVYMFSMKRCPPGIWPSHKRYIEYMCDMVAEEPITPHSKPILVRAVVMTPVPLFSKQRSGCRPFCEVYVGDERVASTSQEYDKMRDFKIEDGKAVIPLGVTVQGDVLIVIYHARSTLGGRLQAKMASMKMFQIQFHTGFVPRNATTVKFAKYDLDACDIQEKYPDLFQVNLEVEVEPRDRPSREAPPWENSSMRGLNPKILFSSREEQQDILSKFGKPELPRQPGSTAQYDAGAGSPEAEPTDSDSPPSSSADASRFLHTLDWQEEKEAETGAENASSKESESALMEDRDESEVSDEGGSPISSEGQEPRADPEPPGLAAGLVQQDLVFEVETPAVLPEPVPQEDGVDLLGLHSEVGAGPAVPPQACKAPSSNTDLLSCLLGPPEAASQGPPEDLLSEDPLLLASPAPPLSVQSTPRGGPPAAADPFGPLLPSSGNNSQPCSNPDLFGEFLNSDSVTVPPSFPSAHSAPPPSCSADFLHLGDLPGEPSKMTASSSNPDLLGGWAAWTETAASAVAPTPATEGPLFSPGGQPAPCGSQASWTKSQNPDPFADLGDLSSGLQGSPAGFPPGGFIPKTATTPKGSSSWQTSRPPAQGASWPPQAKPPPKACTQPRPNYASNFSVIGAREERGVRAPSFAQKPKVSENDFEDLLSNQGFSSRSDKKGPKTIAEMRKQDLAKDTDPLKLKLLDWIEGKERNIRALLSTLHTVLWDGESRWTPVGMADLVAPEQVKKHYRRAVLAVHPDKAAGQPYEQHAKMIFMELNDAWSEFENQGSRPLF
LCK, sequence (P06239 whole entry): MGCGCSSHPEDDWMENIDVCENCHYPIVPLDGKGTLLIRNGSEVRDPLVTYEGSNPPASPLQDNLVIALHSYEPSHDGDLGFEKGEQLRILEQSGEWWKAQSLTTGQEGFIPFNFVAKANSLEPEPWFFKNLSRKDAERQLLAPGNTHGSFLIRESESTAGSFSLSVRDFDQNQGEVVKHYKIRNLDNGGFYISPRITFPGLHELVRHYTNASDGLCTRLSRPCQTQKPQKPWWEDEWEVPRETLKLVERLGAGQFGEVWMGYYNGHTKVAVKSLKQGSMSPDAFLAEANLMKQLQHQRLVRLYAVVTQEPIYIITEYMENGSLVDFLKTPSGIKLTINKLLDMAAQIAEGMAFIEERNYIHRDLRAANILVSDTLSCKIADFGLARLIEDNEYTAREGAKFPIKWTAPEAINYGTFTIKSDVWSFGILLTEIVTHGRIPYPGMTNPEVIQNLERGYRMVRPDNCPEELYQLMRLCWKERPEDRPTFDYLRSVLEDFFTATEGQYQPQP
TBK1, sequence (Q9UHD2 whole entry): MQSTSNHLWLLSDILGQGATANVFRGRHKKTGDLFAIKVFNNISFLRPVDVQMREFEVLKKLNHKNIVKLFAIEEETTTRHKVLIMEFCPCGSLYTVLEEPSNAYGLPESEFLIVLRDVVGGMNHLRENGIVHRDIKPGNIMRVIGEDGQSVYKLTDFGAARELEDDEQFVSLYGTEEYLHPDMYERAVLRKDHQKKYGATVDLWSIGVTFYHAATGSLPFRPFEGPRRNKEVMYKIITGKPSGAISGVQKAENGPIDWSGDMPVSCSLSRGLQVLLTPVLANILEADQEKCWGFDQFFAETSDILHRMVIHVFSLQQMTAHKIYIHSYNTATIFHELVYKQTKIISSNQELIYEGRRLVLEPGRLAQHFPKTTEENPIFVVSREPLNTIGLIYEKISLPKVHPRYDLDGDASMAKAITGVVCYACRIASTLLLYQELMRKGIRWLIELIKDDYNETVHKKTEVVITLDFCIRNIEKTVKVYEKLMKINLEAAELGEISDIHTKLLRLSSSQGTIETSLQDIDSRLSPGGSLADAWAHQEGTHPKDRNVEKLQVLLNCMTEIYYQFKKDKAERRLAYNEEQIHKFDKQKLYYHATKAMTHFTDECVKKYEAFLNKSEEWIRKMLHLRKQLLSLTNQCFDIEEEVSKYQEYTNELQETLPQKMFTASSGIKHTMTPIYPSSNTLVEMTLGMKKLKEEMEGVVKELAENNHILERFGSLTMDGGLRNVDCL
EGFR, sequence (P00533 whole entry): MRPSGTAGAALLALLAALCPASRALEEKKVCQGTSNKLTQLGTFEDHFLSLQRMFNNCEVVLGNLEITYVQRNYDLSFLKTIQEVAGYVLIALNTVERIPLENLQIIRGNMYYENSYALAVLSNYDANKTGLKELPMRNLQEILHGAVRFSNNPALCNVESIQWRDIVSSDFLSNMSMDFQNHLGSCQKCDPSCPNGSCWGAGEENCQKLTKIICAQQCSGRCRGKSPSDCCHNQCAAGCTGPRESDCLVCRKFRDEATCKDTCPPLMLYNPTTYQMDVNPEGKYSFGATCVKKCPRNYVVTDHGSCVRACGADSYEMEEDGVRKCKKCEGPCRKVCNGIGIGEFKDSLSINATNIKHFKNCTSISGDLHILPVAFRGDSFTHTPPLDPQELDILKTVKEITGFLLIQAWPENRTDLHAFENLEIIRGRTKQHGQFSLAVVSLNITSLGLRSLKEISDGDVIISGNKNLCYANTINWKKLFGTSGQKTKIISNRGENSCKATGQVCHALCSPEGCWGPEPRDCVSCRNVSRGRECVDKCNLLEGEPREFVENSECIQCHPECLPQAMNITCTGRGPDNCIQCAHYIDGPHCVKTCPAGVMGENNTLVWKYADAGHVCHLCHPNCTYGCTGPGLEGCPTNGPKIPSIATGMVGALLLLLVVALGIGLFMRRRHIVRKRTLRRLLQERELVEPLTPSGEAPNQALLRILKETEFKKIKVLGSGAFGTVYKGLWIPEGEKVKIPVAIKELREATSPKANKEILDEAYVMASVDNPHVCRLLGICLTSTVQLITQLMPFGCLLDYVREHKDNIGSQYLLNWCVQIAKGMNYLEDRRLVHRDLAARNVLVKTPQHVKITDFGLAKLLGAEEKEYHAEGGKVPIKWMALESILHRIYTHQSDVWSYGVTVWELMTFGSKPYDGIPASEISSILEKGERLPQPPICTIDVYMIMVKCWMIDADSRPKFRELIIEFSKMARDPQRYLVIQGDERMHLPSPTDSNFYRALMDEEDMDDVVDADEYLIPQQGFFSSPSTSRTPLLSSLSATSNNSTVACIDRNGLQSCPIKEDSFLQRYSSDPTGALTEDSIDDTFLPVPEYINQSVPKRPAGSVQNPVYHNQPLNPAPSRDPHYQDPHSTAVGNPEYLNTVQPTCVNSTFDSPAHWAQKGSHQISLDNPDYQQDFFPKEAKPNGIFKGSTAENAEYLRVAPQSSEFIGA

With `C[C@@H]1CC(=O)NN=C1c1ccc(NN=C(C#N)C#N)cc1` [levosimendan], the remaining binding at 100 µM in [1] was determined as 100%; in [2], 95%; in experiment [3] (setting [21]), 46%; in [4] it was 62%; in [5], 100%; in experiment [6], 53%. The remaining binding at 100 µM in experiment [7] came to 100%; in experiment [8] (setting [21]) it was 16%; in experiment [9] (setting [21]), 38%; in [10], 100%; in experiment [11], 88%; in [12], 92%. The remaining binding at 100 µM in experiment [13] (setting [21]) stood at 28%; in experiment [14], 100%; in experiment [15] it was 83%; in experiment [16] it was 89%; in experiment [17] it was 78%; in experiment [18] it was 96%. Moreover, in experiment [19], the remaining binding at 100 µM stood at 100%. Also, the remaining binding at 10 µM in experiment [3] (setting [20]) turned out to be 89%; in experiment [8] (setting [20]), 24%; in [9] (setting [20]), 94%; in experiment [13] (setting [20]) it was 78%.
